Assay results reported in patent US8217013B2, “Polyene diester antibiotics” (priority 2007, dated 2012).

What was measured:
[1] = test system: Saccharomyces cerevisiae; assay: Test of antibacterial activity in vitro (bacteria-inhibition zone); type: cell-based; details: 2.8 μg/ml after conversion
Text: (§1) Test of Antibacterial Activity In Vitro
(§2) Experiment drugs: the polyene diester compounds prepared by examples 1-12
(§3) Control drugs: amphotericin B (standard product) • mycostatin (standard product) • natamycin (standard product)
2.2 Preparation of Saccharomyces cerevisiae suspension: PHARMACOPOEIA OF THE PEOPLES REPUBLIC OF CHINA, second part, 2005 edition, appendix p 80, p 83.
(§4) Taking appropriate amount of the above mentioned amphotericin B, mycostatin, natamycin and the polyene diester compounds prepared by examples 1-8 and 10-12, dissolving in a little dimethyl sulfoxide respectively, using pH7 phosphate buffer to dilute into solution which is equivalent to contain amphotericin B, mycostatin, natamycin 280 Units per milliliter, taking 1 ml and using pH7 phosphate buffer to quantitatively dilute into solution which is equivalent to contain amphotericin B 1.4 μg/ml and 2.8 μg/ml, and is equivalent to contain 5.6 μg/ml of mycostatin and natamycin.
(§5) In addition, preparing the solution according to the same method, adding 40% defibered sheep serum, using pH7 phosphate buffer to quantitatively dilute into unit solution which is equivalent to contain amphotericin B 1.4 μg/ml and 2.8 μg/ml, and is equivalent to contain 5.6 μg/ml of mycostatin and natamycin. Testing according to PHARMACOPOEIA OF THE PEOPLES REPUBLIC OF CHINA, second part, 2005 edition, appendix XIA The Antibiotics Microorganism Test.
(§6) Medium: Improved Martin Agar Medium, PHARMACOPOEIA OF THE PEOPLES REPUBLIC OF CHINA, second part, 2005 edition, appendix p 84.
(§7) Test method: Double-plate counting method; […] bacteria bed 15 ml to replace the double layers, culture temperature: 37° C., time: 24 h; strain concentration: 1%
(§8) Medium: Modified Martin Broth Medium

[2] = test system: Candida mycoderma; assay: as above; type: cell-based; details: 2.8 μg/ml after conversion
Text: as §1, §2, §3
2.3 Preparation of Candida mycoderrna suspension: the method is as same as preparation of Saccharomyces cerevisiae suspension
as §4, §5, §6, §7, §8

[3] = serum added (40% defibered sheep serum)

CCOC(=O)OC(C)OC(=O)[C@H]1[C@@H]2C[C@@H](OC3OC(C)C(O)C(N)C3O)/C=C/C=C/C=C/C=C/C=C/C=C/C=C/[C@H](C)[C@@H](O)[C@@H](C)[C@H](C)OC(=O)C[C@H](O)C[C@H](O)CC[C@@H](O)[C@H](O)C[C@H](O)C[C@](O)(C[C@@H]1O)O2 (stereo partly drawn) [amphotericin B ethoxycarbonyloxyethyl ester]
++ (9-12 mm: ++): diameter of the bacteria-inhibition zone, Saccharomyces cerevisiae 0 h ([1]; no serum) | diameter of the bacteria-inhibition zone, Saccharomyces cerevisiae 0 h [1, 3] | diameter of the bacteria-inhibition zone, Saccharomyces cerevisiae 6 h ([1]; no serum) | diameter of the bacteria-inhibition zone, Saccharomyces cerevisiae 24 h ([1]; no serum) | diameter of the bacteria-inhibition zone, Saccharomyces cerevisiae 48 h ([1]; no serum) | diameter of the bacteria-inhibition zone, Candida mycoderma 6 h [2, 3]
+ (7-9 mm: +): diameter of the bacteria-inhibition zone, Candida mycoderma 0 h ([2]; no serum) | diameter of the bacteria-inhibition zone, Candida mycoderma 0 h [2, 3] | diameter of the bacteria-inhibition zone, Candida mycoderma 6 h ([2]; no serum) | diameter of the bacteria-inhibition zone, Candida mycoderma 24 h ([2]; no serum) | diameter of the bacteria-inhibition zone, Candida mycoderma 48 h ([2]; no serum)

amphotericin B ethyl acetate
++ (9-12 mm: ++): diameter of the bacteria-inhibition zone, Saccharomyces cerevisiae 0 h [1, 3] | diameter of the bacteria-inhibition zone, Candida mycoderma 0 h ([2]; no serum) | diameter of the bacteria-inhibition zone, Candida mycoderma 0 h [2, 3] | diameter of the bacteria-inhibition zone, Candida mycoderma 6 h ([2]; no serum) | diameter of the bacteria-inhibition zone, Candida mycoderma 24 h ([2]; no serum) | diameter of the bacteria-inhibition zone, Candida mycoderma 48 h ([2]; no serum)
+ (7-9 mm: +): diameter of the bacteria-inhibition zone, Saccharomyces cerevisiae 0 h ([1]; no serum) | diameter of the bacteria-inhibition zone, Saccharomyces cerevisiae 6 h ([1]; no serum) | diameter of the bacteria-inhibition zone, Saccharomyces cerevisiae 24 h ([1]; no serum) | diameter of the bacteria-inhibition zone, Saccharomyces cerevisiae 48 h ([1]; no serum)
